Key:
RARα [1] = target: T1, RARα (Homo sapiens, UniProt P10276); assay: RARα activation (transactivation); format: cell-based; settings: Table 6
T1 sequence (P10276 1-462): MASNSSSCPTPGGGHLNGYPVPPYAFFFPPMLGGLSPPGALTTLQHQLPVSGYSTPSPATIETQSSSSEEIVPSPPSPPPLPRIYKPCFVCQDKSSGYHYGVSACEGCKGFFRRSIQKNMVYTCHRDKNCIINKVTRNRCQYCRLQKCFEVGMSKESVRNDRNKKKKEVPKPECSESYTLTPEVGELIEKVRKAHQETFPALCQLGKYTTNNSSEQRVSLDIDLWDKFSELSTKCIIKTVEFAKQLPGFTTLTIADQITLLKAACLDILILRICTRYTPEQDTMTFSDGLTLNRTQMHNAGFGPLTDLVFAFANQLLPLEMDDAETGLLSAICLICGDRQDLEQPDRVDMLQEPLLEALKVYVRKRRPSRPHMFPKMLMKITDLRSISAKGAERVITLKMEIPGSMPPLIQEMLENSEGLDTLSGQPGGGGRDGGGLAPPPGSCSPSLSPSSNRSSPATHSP
Description: (§1) Methods essentially as described in those publications were used to determine the binding and transactivation properties of retinoids reported in the Examples herein.

T47-D = T47-D breast carcinoma cell growth inhibition (MTT), combination; format: cell-based, human; settings: Compound B plus constant concentration of Example 6; FIG. 7
Description: The compound of Example 6 was tested for its ability to inhibit a human breast carcinoma cell line in combination with a retinoid having RARα activity, all-E-3,7-dimethyl-9-[(2-methoxy-4-methyl-6-octyloxy)phenyl]-2,4,6,8-nonatetraenoic acid (Compound B), as shown: [drawing 7]
Breast carcinoma cell line, T47-D, obtained from the ATCC [Accession No. HTB133] was grown in RPMI 1640 media supplemented with 10% FBS, 10 μg/ml insulin and 13 ng/ml gentamicin, and incubated at 37° C., 4.5% CO2 and 95.5% humidified air. The cells were harvested upon reaching 70-80% confluency and pelleted. The cells were resuspended in the media and seeded (150 μl/well) into 96-well plates (Corning) at a density allowing linear growth over a seven day assay period (i.e., T47-D seeded at 4×10^3 cells/well). […]
Liquid was removed by aspiration, 50 μl 95% ethanol was added, and the plates were shaken (Mini-Orbital Shaker, Bellco) for 15 minutes to solubilize the formazan product. The optical density of each well was measured using an automatic plate reader (Microplate EL320 Reader, Bio-Tek Instruments) with a test wavelength of 570 nm and a reference wavelength of 660 nm. The amount of cell growth inhibition caused by various concentrations of Compound B in combination with a constant concentration of the compound of Example 6 was determined in accordance with the following equation: [formula]

RAR γ [2] = target: T2, RAR γ (Homo sapiens, UniProt P13631); assay: RARγ activation (transactivation); format: cell-based; settings: Table 6; @ 1000 nM; read-out: RAR Activation % max (γ)
T2 sequence (P13631 1-454): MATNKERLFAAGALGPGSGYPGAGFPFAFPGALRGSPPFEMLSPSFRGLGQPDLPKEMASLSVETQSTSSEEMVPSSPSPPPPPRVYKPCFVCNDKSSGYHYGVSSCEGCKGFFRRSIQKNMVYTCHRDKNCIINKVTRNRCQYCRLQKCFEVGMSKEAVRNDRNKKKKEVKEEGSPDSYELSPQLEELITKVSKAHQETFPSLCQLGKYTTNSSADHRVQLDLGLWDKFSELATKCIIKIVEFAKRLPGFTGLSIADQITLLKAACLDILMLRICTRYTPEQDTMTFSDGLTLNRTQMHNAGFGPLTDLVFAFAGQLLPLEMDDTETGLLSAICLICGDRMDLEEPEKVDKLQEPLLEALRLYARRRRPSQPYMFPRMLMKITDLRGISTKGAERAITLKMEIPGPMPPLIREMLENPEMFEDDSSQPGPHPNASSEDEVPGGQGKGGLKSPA
Description: (§2) Methods for determining the binding and transactivation properties of retinoids with regard to the RAR receptors and RXR receptors are known in the art, e.g., Levin et al., Nature, 355:359-361 (Jan. 23, 1992); Allenby et al., Proc. Natl. Acad. Sci. USA, 90:30-34 (January, 1993); Allenby et al., J. Biol. Chem., 269:16689-16695 (Jun. 17, 1994). Methods essentially as described in those publications were used to determine the binding and transactivation properties of retinoids reported in the Examples herein.
(§3) Retinoid receptor binding and transactivation assays were performed on Compound B and Example 6 as described above.

RAR β [3] = target: T3, RAR β (Homo sapiens, UniProt P10826); assay: RARβ activation (transactivation); format: cell-based; settings: Table 6
T3 sequence (P10826 1-455): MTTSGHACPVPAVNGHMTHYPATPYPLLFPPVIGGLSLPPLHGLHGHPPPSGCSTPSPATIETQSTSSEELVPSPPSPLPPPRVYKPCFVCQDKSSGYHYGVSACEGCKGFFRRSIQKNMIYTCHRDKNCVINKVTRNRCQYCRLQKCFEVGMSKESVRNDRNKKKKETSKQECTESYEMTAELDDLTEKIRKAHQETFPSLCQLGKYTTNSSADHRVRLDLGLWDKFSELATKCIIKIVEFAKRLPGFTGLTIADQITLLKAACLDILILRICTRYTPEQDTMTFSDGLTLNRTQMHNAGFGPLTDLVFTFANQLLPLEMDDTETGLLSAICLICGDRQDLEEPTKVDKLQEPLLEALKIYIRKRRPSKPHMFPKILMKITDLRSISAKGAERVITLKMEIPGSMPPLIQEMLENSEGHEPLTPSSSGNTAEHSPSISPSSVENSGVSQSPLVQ
Description: as §2, §3

RAR γ [4] = target: T2, RAR γ; assay: RARγ binding; settings: Table 6
Description: as §2, §3

RXRα = target: T4, RXRα (Homo sapiens, UniProt P19793); assay: RXRα activation (transactivation); format: cell-based; settings: Table 6; @ 1000 nM; read-out: RXR Activation % max (α)
T4 sequence (P19793 1-462): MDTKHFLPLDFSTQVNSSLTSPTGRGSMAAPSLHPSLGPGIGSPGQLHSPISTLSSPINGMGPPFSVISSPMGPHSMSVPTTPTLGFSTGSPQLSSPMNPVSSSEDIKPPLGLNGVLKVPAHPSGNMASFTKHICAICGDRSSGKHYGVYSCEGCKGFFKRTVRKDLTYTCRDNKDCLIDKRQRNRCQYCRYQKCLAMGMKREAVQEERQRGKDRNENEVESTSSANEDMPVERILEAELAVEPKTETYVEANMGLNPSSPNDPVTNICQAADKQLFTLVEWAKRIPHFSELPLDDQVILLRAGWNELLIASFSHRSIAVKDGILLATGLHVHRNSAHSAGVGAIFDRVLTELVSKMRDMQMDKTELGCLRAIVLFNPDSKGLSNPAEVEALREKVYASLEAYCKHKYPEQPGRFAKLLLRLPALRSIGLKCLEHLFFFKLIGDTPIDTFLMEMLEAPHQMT
Description: as §1

RARα [5] = target: T1, RARα; assay: RARα binding; settings: Table 6; read-out: RAR Binding IC50 (α)
Description: as §1

RAR β [6] = target: T3, RAR β; assay: RARβ binding; settings: Table 6
Description: as §2, §3

Row | SMILES | Emax at 1 µM (RARα [1]; @ 1000 nM, read-out: RAR Activation % max (α)) [%] | antiproliferative activity in breast cancer cell line in combination (potentiation of Compound B) (T47-D) | Emax at 1 µM (RAR γ [2]) [%] | Emax at 1 µM (RAR β [3]; @ 1000 nM, read-out: RAR Activation % max (β)) [%] | EC50 (RARα [1]; read-out: RAR Activation EC50 (α)) [nM] | IC50 (RAR γ [4]) [µM] | EC50 (RAR β [3]) [nM] | Emax at 1 µM (RXRα) [%] | IC50 (RARα [5]) [nM] | IC50 (RAR β [6]) [nM]
1 | CC1=C(/C=C/C2=C(/C=C/C(C)=C/C(=O)O)CCCCC2)C(C)(C)CCC1 [Example 6, (2E,4E)-3-Methyl-5-(2-((E)-2(2,6,6-trimethyl-1-cyclohexen-1-yl)ethenyl)-1-cyclohepten-1-yl)-2,4-pentadienoic acid] | 4 | Enhanced antiproliferative activity | 9 | 8 |  |  |  |  |  | 
2 | CCCCCCCCOc1cc(C)cc(OC)c1/C=C/C(C)=C/C=C/C(C)=C/C(=O)O [Compound B, all-E-3,7-dimethyl-9-[(2-methoxy-4-methyl-6-octyloxy)phenyl]-2,4,6,8-nonatetraenoic acid] |  |  | 48 |  | 11 | > 10 | 5.3 | 0 | 240 | 500
